{"source": "paper PMC4374917", "about": "“Identification of Small Molecules that Disrupt Signaling between ABL and Its Positive Regulator RIN1” (PLoS ONE, 2015)", "key": {"[1]": {"molecular_target": "T1, ABL1-eGFP (CRK substrate) (Homo sapiens, UniProt P00519)", "T1 construct": "The ABL1 amino terminus was amplified from AblWT1-531 (gift of Dr. John Kuriyan); made in house; host or cells: Sf9 insect cells (baculovirus, pFastBac1)", "T1 sequence (P00519 1-531 isoform P00519-2)": "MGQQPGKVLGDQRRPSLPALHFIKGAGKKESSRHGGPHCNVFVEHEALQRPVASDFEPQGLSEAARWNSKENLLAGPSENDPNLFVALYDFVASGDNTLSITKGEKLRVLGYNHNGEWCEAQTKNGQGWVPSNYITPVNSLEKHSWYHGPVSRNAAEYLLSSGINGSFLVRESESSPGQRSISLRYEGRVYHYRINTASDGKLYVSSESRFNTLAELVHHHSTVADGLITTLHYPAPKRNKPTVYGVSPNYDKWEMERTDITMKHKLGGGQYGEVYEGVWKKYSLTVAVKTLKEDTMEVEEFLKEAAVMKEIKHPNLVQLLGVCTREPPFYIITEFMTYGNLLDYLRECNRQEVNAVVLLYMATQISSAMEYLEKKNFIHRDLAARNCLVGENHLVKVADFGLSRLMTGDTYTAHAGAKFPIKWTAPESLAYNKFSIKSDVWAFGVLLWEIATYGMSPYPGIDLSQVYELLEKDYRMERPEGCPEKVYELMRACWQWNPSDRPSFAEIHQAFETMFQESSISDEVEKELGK", "assay": "In vitro kinase assay for direct ABL inhibitors", "assay_type": "biochemical", "conditions": "10 μM test compound, 0.5 nM ABL-eGFP, 2 μM CRK, 30 minutes at 30°C, anti-phosphotyrosine immunoblot", "protocol": "To identify these direct ABL kinase inhibitors, we screened the compounds using an in vitro kinase assay. Purified ABL1-eGFP was incubated with CRK, a well-characterized substrate, in kinase buffer containing ATP.\n0.5 nM purified ABL-eGFP was mixed with 2 μM CRK and 10 μM test compound and incubated in kinase buffer for 30 minutes at 30°C. Samples were analyzed by immunoblot using anti-phosphotyrosine. All the hits were screened, and a representative immunoblot is shown here.\nThe kinase assay to identify direct ABL kinase inhibitors from UCLA MSSR and TSRI hits was performed as described in PubChem BioAssay AID 624303 (https://pubchem.ncbi.nlm.nih.gov/assay/assay.cgi?aid=624303). Purified His6-CrkII was expressed and purified as previously described."}, "native ABL1": {"tested_on": "native ABL1", "parameters": "method as in PMID 16415863, PMID 20072125", "conditions": "cited from earlier work"}, "[2]": {"tested_on": "MAPK1/3 phosphorylation in K562 cells", "assay": "pMAPK in K562 (immunoblot pMAPK1/3 / MAPK1/3)", "assay_type": "cell-based, human", "conditions": "for %inhibition of MAPK1/3 phosphorylation (pMAPK/MAPK ratio): 10 μM, 4 hours at 37°C, vs DMSO control, six biological replicates", "protocol": "[…] Each compound was tested with six biological replicates. Band intensity was quantified using LI-COR Odyssey, and the ratio of pMAPK/MAPK signal intensity is graphed for each compound and its DMSO control. Compounds are identified by their PubChem CID number.\nMembranes were scanned and signal intensity quantified using a Li-Cor Odyssey scanner. To quantify RIN1 expression, signal intensities were first normalized to the housekeeping gene, tubulin. Phospho-MAPK1/3 signal intensities were normalized to total MAPK1/3. Changes in protein expression or phosphorylation were calculated as fold-change compared to control vector.\nK562 with vector or RIN1 overexpression lentivirus were previously described. To analyze MAPK1 phosphorylation, confluent K562 cells were lysed in NP-40 buffer and immunoblotted. […] Cells from each well were harvested, lysed in 400 µL NP-40 and immunoblotted.\nTo test each compound, 5x10^5 K562 cells were plated on a 10 cm tissue culture plate and incubated for 3 days. Cells were harvested and the volume brought to 12 mLs with fresh medium. 1 mL of the cells was distributed into each well of a 12-well tissue culture plate. In 6 of the wells, 10 µL of 1 mM compound was added per well. 10 µL of DMSO was added to the remaining wells and mixed by pipetting up and down. Cells were incubated at 37°C and 5% CO2 for 4 hours. After incubation, cells were harvested from each well, lysed in 150 µL of RIPA buffer and analyzed as above."}, "[3]": {"molecular_target": "T2, RIN1::ABL1 interaction (RIN1-SBP / ABL1-eGFP) (Homo sapiens, UniProt P00519+Q13671)", "T2 construct": "The ABL1 amino terminus was amplified from AblWT1-531 (gift of Dr. John Kuriyan); TEV site-ProtA-Flag (C, cleaved yes); made in house; host or cells: Sf9 insect cells (baculovirus, pFastBac1)", "T2 sequence (P00519 1-531 isoform P00519-2)": "as above", "T2 sequence (Q13671 whole entry)": "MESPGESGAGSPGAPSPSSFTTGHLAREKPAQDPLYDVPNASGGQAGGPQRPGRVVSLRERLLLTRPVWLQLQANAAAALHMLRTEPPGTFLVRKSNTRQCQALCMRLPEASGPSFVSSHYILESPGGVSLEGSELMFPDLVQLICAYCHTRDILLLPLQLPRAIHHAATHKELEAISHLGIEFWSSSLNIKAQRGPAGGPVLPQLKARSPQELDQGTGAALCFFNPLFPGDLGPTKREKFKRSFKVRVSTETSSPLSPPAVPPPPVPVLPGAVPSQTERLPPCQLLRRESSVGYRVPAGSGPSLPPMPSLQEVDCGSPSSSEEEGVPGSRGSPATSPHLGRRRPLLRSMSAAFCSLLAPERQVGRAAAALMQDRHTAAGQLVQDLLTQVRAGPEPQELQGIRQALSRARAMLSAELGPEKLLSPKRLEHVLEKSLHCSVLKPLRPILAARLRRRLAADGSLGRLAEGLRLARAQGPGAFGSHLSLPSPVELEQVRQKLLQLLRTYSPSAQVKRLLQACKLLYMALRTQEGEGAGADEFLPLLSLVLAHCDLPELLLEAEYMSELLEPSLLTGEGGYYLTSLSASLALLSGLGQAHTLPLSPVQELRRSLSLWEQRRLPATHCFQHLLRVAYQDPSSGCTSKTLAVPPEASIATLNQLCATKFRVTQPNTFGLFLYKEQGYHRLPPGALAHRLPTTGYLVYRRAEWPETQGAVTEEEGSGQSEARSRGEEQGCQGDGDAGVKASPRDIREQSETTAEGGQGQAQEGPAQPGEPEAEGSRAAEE", "assay": "TR-FRET assay of RIN1::ABL binding", "conditions": "for IC50: 21 hits selected for cell-based assay, concentration-response curves in triplicate", "protocol": "To measure binding between purified RIN1 and ABL proteins we designed a quantitative TR-FRET based assay.\nThe assay readout was calculated as a ratio of donor and acceptor emissions, a measurement independent of donor and acceptor concentrations that allows for reliable comparison across assays. Assay components were mixed in kinase buffer and incubated for one hour at room temperature to allow for RIN1-Y^36 phosphorylation by ABL1 and subsequent formation of a stable divalent interaction between these proteins. Each multi-well assay plate included negative control samples (streptavidin-terbium, ABL-eGFP and ATP without RIN1-SBP). […]"}, "K562 cells": {"tested_on": "K562 cells", "assay": "K562 proliferation assay (MTS)", "assay_type": "cell-based, human", "conditions": "dose-response 3.125-100 μM, 48 hours, triplicate", "protocol": "K562 cells were plated 3x10^4 cells/well in 96-well plates. Cells were treated with DMSO or test compound in dose-response (100, 50, 25, 12.5, 6.25, 3.125 μM) to a final DMSO concentration of 1%. After 48 hours of incubation at 37°C, cell proliferation was assessed by MTS assay (Promega CellTiter 96 AQueous One Solution) according to the manufacturer’s protocol. Absorbance at 490nm was read on a PerkinElmer Victor3 plate reader. Experiments were performed in triplicate.\nK562 cells were treated with DMSO or test compound in dose-response. After 48 hours of incubation at 37°C, cell proliferation was assessed by MTS assay. Growth in the presence of test compound was normalized to DMSO-treated K562 cells and results are presented as % of growth relative to control. Experiments were performed in triplicate. (PDF) Click here for additional data file."}, "[4]": {"conditions": "S2 Table, TR-FRET assay, maximal inhibition, read-out: Max response (%)"}}, "note": "Where two headings read alike, the source gives them in different places."}
{"smiles": "COc1ccc(CCNc2cc(=O)nc(N)[nH]2)cc1", "note": "[CID 1532134, 2-amino-6-[2-(4-methoxyphenyl)ethylamino]-1H-pyrimidin-4-one]", "values": [{"measurement": "ABL kinase activity: CRK and ABL phosphorylation", "setting": "[1]", "value": "no activity"}]}
{"smiles": "NC(=O)c1cccc(-c2cc(Nc3ccc(OC(F)(F)F)cc3)ncn2)c1", "note": "[GNF-2]", "values": [{"measurement": "activity against native ABL1", "setting": "native ABL1", "value": "no activity"}]}
{"smiles": "COc1cccc(CSc2nnc(CSc3nc4nc(C)cc(C)n4n3)s2)c1", "note": "[compound 1818178]", "values": [{"measurement": "%inhibition of MAPK1/3 phosphorylation (pMAPK/MAPK ratio)", "setting": "[2]", "value": "25 ± 20", "unit": "%"}, {"measurement": "IC50", "setting": "[3]; S2 Table", "value": 9570, "unit": "nM"}, {"measurement": "Emax", "setting": "[3]; [4]", "value": 95.7, "unit": "%"}, {"measurement": "K562 proliferation (% growth relative to DMSO control)", "setting": "K562 cells", "value": "decrease K562 proliferation"}]}
{"smiles": "CN(C(=O)c1ccc(NC(=O)Cc2ccc(NC(=O)C3CCN(C(=O)c4ccccc4)CC3)cc2)cc1)C1CC1", "note": "[compound 44142745]", "values": [{"measurement": "%inhibition of MAPK1/3 phosphorylation (pMAPK/MAPK ratio)", "setting": "[2]", "value": "52 ± 47", "unit": "%"}, {"measurement": "IC50", "setting": "[3]; S2 Table", "value": 2530, "unit": "nM"}, {"measurement": "Emax", "setting": "[3]; [4]", "value": 86.2, "unit": "%"}, {"measurement": "Emax", "setting": "[3]; S4 Table, N-acyl piperidine-4-carboxamide series SAR, RIN1-ABL dose-response curve, read-out: Max Response (%)", "value": 89.1, "unit": "%"}, {"measurement": "K562 proliferation (% growth relative to DMSO control)", "setting": "K562 cells", "value": "decrease K562 proliferation"}]}
{"smiles": "CN(C(=O)c1ccc(NC(=O)Cc2ccc(NC(=O)C3CCN(C(=O)c4ccc(F)cc4)CC3)cc2)cc1)C1CC1", "note": "[compound 56844185]", "values": [{"measurement": "%inhibition of MAPK1/3 phosphorylation (pMAPK/MAPK ratio)", "setting": "[2]", "value": "57 ± 13", "unit": "%"}, {"measurement": "IC50", "setting": "[3]; S2 Table", "value": 1060, "unit": "nM"}, {"measurement": "Emax", "setting": "[3]; [4]", "value": 85.2, "unit": "%"}, {"measurement": "K562 proliferation (% growth relative to DMSO control)", "setting": "K562 cells", "value": "decrease K562 proliferation"}]}
{"smiles": "COc1ccc(C(=O)N2CCC(C(=O)Nc3ccc(CC(=O)Nc4ccc(C(=O)N(C)C5CC5)cc4)cc3)CC2)cc1", "note": "[compound 56844186]", "values": [{"measurement": "%inhibition of MAPK1/3 phosphorylation (pMAPK/MAPK ratio)", "setting": "[2]", "value": "75 ± 33", "unit": "%"}, {"measurement": "IC50", "setting": "[3]; S2 Table", "value": 3670, "unit": "nM"}, {"measurement": "Emax", "setting": "[3]; [4]", "value": 84.8, "unit": "%"}, {"measurement": "K562 proliferation (% growth relative to DMSO control)", "setting": "K562 cells", "value": "decrease K562 proliferation"}]}
{"smiles": "CN(C(=O)c1ccc(NC(=O)Cc2ccc(NC(=O)C3CCN(C(=O)c4cccc(F)c4)CC3)cc2)cc1)C1CC1", "note": "[compound 56844188]", "values": [{"measurement": "%inhibition of MAPK1/3 phosphorylation (pMAPK/MAPK ratio)", "setting": "[2]", "value": "75 ± 31", "unit": "%"}, {"measurement": "IC50", "setting": "[3]; S2 Table", "value": 1350, "unit": "nM"}, {"measurement": "Emax", "setting": "[3]; [4]", "value": 86.8, "unit": "%"}, {"measurement": "K562 proliferation (% growth relative to DMSO control)", "setting": "K562 cells", "value": "decrease K562 proliferation"}]}
{"smiles": "Cc1ccc(NC(=O)c2ccc(CN3CCN(C)CC3)cc2)cc1Nc1nccc(-c2cccnc2)n1", "note": "[imatinib, reference compound]", "values": [{"measurement": "MAPK1/3 phosphorylation signal", "setting": "[2]; 1 μM imatinib, 1 and 4 hours at 37°C", "value": "rapidly decreased"}]}
{"smiles": "O=C(O[C@@H]1Cc2c(O)cc(O)cc2O[C@@H]1c1cc(O)c(=O)c2c(O)c(O)cc([C@H]3Oc4cc(O)cc(O)c4C[C@H]3OC(=O)c3cc(O)c(O)c(O)c3)c2c1)c1cc(O)c(O)c(O)c1", "note": "[theaflavin-3,3’-digallate]", "values": [{"measurement": "ABL kinase activity: CRK and ABL phosphorylation", "setting": "[1]", "value": "directly inhibits ABL trans-phosphorylation of CRK as well as ABL"}, {"measurement": "Activity in the TR-FRET screening assay (FRET ratio)", "setting": "[3]; primary screen", "value": "decrease the FRET ratio"}]}
